Assay results: patent publication US20110207655A1, “CYCLIC DEPSIPEPTIDE COMPOUND AND USE THEREOF” (Astellas Pharma Inc., priority 2008, published 2011)
Starred links: 1 amine or outer side, 2 acyl side, 3 side chain; linkers in the order of their positions; H or OH if unused. Positions of bridges follow the written chain, without caps; N, C: chain ends. Non-standard residues stand in square brackets, D forms with d. Residues, ends and D or L forms follow the SMILES beside them. *: point of attachment. X8 = CC(=O)NC(C(=O)OC(C(C)C)C(N[*:1])C(=O)[*:2])C(O)C(C)C; X2 = CSCC(O)C(NC(C)=O)C(=O)OC(C(C)C)C(N[*:1])C(=O)[*:2]; X3 = CC(C)C(O[*:3])C(N[*:1])C(=O)[*:2]; X7 = O=C(C(Cc1ccccc1F)O[*:1])[*:2]; X4 = CCCC(=O)NC(C(=O)*)C(O)C(C)C; X5 = CSCC(=O)NC(C(=O)*)C(O)C(C)C; X6 = CCC(=O)NC(C(=O)*)C(O)C(C)C; PhLac = O=C(O)[CH](O)Cc1ccccc1; NMeT = CN[CH](C(=O)O)[CH](C)O; NMeA = CN[CH](C)C(=O)O; NMeDha = C=C(NC)C(=O)O

What follows are compounds tested on Gq/11 (assay: Inhibitory action on Gq/11: LTD4-induced cellular Ca2+ change in CHO cells stably expressing CysLTR2 (FLIPR)). Conditions: 10 nM LTD4, maximum Fluo-4 fluorescence intensity, read-out: Gq/11 inhibitory activities (IC50 values).
Format: cell-based
Experimental: The test was carried out according to the method of Non-Patent Citation 3, using a leukotriene receptor CysLTR2 (cysteinyl leukotriene receptor 2), which is known to activate Gq/11. CHO cells stably expressing CysLTR2 were seeded on a 96-well black/clear bottom plate (manufactured by Becton, Dickinson and Company) at 20,000 cells per well, and after 24 hours of seeding, the medium was discarded. Then, Hanks BSS (GIBCO Inc.) including 2 μM Fluo-4, AM (manufactured by Molecular Probe Co.), 0.004% pluronic acid, 1% FBS, 20 mM HEPES, and 2.5 mM probenecid was added thereto at 100 μL per well, followed by incubation at 37° C. for 1 hour. After incubation, the resultant was washed four times with Hanks BSS including 20 mM HEPES, and Hanks BSS including 20 mm HEPES per well was added thereto 100 μL per well. In addition, 50 μL of a test compound that had been diluted with Hanks BSS including 20 mM HEPES to a final concentration from 1×10^−10 M to 1×10^−5 M was added thereto, followed by being left to stand at room temperature for 30 minutes. The change of cellular Ca^2+ concentration after addition of leukotriene D4 (LTD4, manufactured by Cayman Co.), which is a CysLTR2 ligand, was measured over time using an FLIPR (Molecular Device Corp.). 50 μL it of leukotriene D4 that had been diluted with Hanks BSS including 20 mM HEPES to a final concentration of 10 nM at 10 seconds after the initiation of measurement was added thereto, fluorescence intensities were measured every second for 50 seconds and every sixth second for 2 minutes, and a maximum fluorescence intensity during a measurement time of 3 minutes was observed. By plotting the concentrations and the fluorescence intensities of the test compounds, the IC50 values were calculated, which were taken as Gq/11 inhibitory activities.
C=C1C(=O)NC(C)C(=O)N(C)C(C)C(=O)NC(C(OC(=O)C(NC(C)=O)C(O)C(C)C)C(C)C)C(=O)N(C)C(C(C)OC)C(=O)OC(C)C(NC(C)=O)C(=O)OC(Cc2ccccc2F)C(=O)N1C (centres unmarked) [Ref 5] (Ac-T[X7][NMeDha]A[NMeA][X8][NMeT](Me); ester 1-C; configuration not given here) gave an IC50 of 25 nM.

Same assay, conditions: read-out: Gq/11 inhibitory activities (IC50 values), 10 nM LTD4, maximum Fluo-4 fluorescence intensity
In the case of C=C1C(=O)NC(C)C(=O)N(C)C(C)C(=O)NC(C(OC(=O)C(NC(=O)CCC)C(O)C(C)C)C(C)C)C(=O)N(C)C(C(C)OC)C(=O)OC(C)C(NC(C)=O)C(=O)OC(Cc2ccccc2)C(=O)N1C (centres unmarked) [Ex1] (Ac-T[PhLac][NMeDha]A[NMeA][X3](X4)[NMeT](Me); ester 1-C; configuration not given here), the IC50 is reported as 31 nM.
With C=C1C(=O)NC(C)C(=O)N(C)C(C)C(=O)NC(C(OC(=O)C(NC(C)=O)C(O)C(C)C)C(C)C)C(=O)N(C)C(C(C)O)C(=O)OC(C)C(NC(C)=O)C(=O)OC(Cc2ccccc2)C(=O)N1C (centres unmarked) [Ex2] (Ac-T[PhLac][NMeDha]A[NMeA][X8][NMeT]; ester 1-C; configuration not given here) the IC50 was 317 nM.
Compound C=C1C(=O)NC(C)C(=O)N(C)C(C)C(=O)NC(C(OC(=O)C(NC(C)=O)C(O)CSC)C(C)C)C(=O)N(C)C(C(C)OC)C(=O)OC(C)C(NC(C)=O)C(=O)OC(Cc2ccccc2)C(=O)N1C (centres unmarked) [Ex3] (Ac-T[PhLac][NMeDha]A[NMeA][X2][NMeT](Me); ester 1-C; configuration not given here) has an IC50 of 97 nM.
For C=C1C(=O)NC(C)C(=O)N(C)C(C)C(=O)NC(C(OC(=O)C(NC(C)=O)C(O)CSC)C(C)C)C(=O)N(C)C(C(C)OC)C(=O)OC(C)C(NC(C)=O)C(=O)OC(Cc2ccccc2)C(=O)N1C (centres unmarked) [Ex4] (Ac-T[PhLac][NMeDha]A[NMeA][X2][NMeT](Me); ester 1-C; configuration not given here), the IC50 was 365 nM.
C=C1C(=O)NC(C)C(=O)N(C)C(C)C(=O)NC(C(OC(=O)C(NC(=O)CC)C(O)C(C)C)C(C)C)C(=O)N(C)C(C(C)OC)C(=O)OC(C)C(NC(C)=O)C(=O)OC(Cc2ccccc2)C(=O)N1C (centres unmarked) [Ref 2] (Ac-T[PhLac][NMeDha]A[NMeA][X3](X6)[NMeT](Me); ester 1-C; configuration not given here) gave an IC50 of 34 nM.
For C=C1C(=O)NC(C)C(=O)N(C)C(C)C(=O)NC(C(OC(=O)C(NC(=O)CSC)C(O)C(C)C)C(C)C)C(=O)N(C)C(C(C)OC)C(=O)OC(C)C(NC(C)=O)C(=O)OC(Cc2ccccc2)C(=O)N1C (centres unmarked) [Ref 3] (Ac-T[PhLac][NMeDha]A[NMeA][X3](X5)[NMeT](Me); ester 1-C; configuration not given here), the IC50 was 56 nM.
COC(C)C1C(=O)OC(C)C(NC(C)=O)C(=O)OC(Cc2ccccc2)C(=O)N(C)C(C)C(=O)NC(C)C(=O)N(C)C(C)C(=O)NC(C(OC(=O)C(NC(C)=O)C(O)C(C)C)C(C)C)C(=O)N1C (centres unmarked) [Ref 7] (Ac-T[PhLac][NMeA]A[NMeA][X8][NMeT](Me); ester 1-C; configuration not given here) gave an IC50 of 32 nM.
